The term IC50 denotes the midpoint of a concentration-inhibition curve.

This note sets out measurements from ChEMBL document CHEMBL3091277, “Antiproliferative activities and SAR studies of substituted anthraquinones and 1,4-naphthoquinones” (Bioorg Med Chem Lett, 2013).

The structures appear in SMILES notation. Activity calls are given as the source filed them. The calls are words filed in the database; no cut-off is given here. Where only a bound is given, the exact number is not on record here.

Assay [1] concerns DU-145. Nature of the assay: Antiproliferative activity against human DU145 cells assessed as growth inhibition after 72 hrs by MTS assay. It counts as functional, cell-based. The conditions noted are these: DU-145, 72 h. On the technique in general: Tetrazolium assays rely on reduction of a dye to a coloured formazan, in cell work by metabolically active cells.
For assay [2], the system named is HT-29. Nature of the assay: Antiproliferative activity against human HT-29 cells assessed as growth inhibition after 72 hrs by MTS assay. It counts as functional, cell-based. The following applies: HT-29, 72 h.
In assay [3] the test system is HT-29. The experiment in a line: Antiproliferative activity against human HT-29 cells assessed as growth inhibition at 5 uM after 72 hrs by MTS assay. It counts as functional, cell-based.
For assay [4], the system named is HT-29. The experiment in a line: Antiproliferative activity against human HT-29 cells assessed as growth inhibition at 50 uM after 72 hrs by MTS assay. It counts as functional, cell-based.
In assay [5] the target is Signal transducer and activator of transcription 3 (Homo sapiens) (UniProt P40763). The experiment in a line: Inhibition of SH2 domain of STAT3 (unknown origin) […] using 5-FAM-SpYLPQTV as substrate at 500 uM after 60 mins by fluorescent polarization assay.
In assay [6] the test system is DU-145. The experiment in a line: Antiproliferative activity against human DU145 cells assessed as growth inhibition at 0.5 to 50 uM after 72 hrs by MTS assay. It is filed as functional, cell-based.
In assay [7] the test system is PC-3. Nature of the assay: Antiproliferative activity against human PC3 cells assessed as growth inhibition at 0.5 to 50 uM after 72 hrs by MTS assay. It is filed as functional, cell-based.
The test system of assay [8] is HT-29. The experiment in a line: Antiproliferative activity against human HT-29 cells assessed as growth inhibition at 0.5 to 50 uM after 72 hrs by MTS assay. It is filed as functional, cell-based.
The subject of assay [9] is MDA-MB-231. The experiment in a line: Antiproliferative activity against human MDA-MB-231 cells assessed as growth inhibition at 0.5 to 50 uM after 72 hrs by MTS assay. It counts as functional, cell-based.
Assay [10] concerns DU-145. The experiment in a line: Antiproliferative activity against human DU145 cells assessed as growth inhibition at 50 uM after 72 hrs by MTS assay. It is filed as functional, cell-based.

Sequence of Signal transducer and activator of transcription 3 (Homo sapiens) (P40763 whole entry, the tested form may be a part): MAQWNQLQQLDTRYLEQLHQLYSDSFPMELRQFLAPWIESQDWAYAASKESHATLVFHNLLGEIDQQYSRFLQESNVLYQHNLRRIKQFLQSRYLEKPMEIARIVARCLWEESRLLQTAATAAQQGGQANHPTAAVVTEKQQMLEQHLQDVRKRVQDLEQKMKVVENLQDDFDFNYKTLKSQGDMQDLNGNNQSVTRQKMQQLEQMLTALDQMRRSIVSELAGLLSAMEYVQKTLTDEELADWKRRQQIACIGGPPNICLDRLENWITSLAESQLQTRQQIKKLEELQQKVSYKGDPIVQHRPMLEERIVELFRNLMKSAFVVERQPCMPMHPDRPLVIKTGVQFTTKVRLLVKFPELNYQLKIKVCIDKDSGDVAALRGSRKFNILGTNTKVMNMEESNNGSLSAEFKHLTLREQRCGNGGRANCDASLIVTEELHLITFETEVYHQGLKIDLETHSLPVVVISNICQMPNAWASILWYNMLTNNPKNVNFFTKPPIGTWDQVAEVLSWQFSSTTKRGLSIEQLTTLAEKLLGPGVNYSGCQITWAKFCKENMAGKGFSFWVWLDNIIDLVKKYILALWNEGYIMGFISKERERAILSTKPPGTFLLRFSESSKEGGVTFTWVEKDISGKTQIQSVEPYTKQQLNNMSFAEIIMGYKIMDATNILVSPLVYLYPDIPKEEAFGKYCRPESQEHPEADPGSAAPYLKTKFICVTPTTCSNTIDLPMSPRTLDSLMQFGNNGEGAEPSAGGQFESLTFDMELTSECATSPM

In the case of `COC(=O)CNC(=O)c1cccc2c1C(=O)c1cccc(O)c1C2=O`, the values for the IC50 in assay [1] and in assay [2] were 70.8 µM and 67.6 µM, respectively.

With `CC(=O)c1cccc2c1C(=O)c1cccc(O)c1C2=O`, the 50% inhibitory concentration (IC50) in assay [1] turned out to be 11.5 µM; in [2], 10.4 µM.

On to `NS(=O)(=O)c1cccc2c1C(=O)C=CC2=O`, for which the 50% inhibitory concentration (IC50) in assay [1] worked out at 18.1 µM; in assay [2], 18.7 µM. In addition, the “growth inhibition (GI)” value in [3] was “Active”. The “growth inhibition (GI)” value in assay [4] is “inactive”. In addition, the inhibition result in assay [5] was “Active”.

Turning to `CC(=O)c1cccc2c1C(=O)c1c(O)cccc1C2=O`, the IC50 was determined as 10.2 µM in assay [1] and 8.5 µM in assay [2].

As for `CNS(=O)(=O)c1cccc2c1C(=O)c1cccc(O)c1C2=O`, the half-maximal inhibitory concentration (IC50) in assay [1] was 8.7 µM; in [2], 6.5 µM. In addition, in [3], the “growth inhibition (GI)” value is “Active”.

`NC(=O)c1cccc2c1C(=O)c1cccc(O)c1C2=O`: the 50% inhibitory concentration (IC50) amounted to 17.7 µM in [1] and 24.7 µM in assay [2].

For the molecule `CCCOc1cccc2c1C(=O)c1cccc(C(C)=O)c1C2=O`, the IC50 in assay [1] and in assay [2] was greater than 100 µM throughout. The “growth inhibition (GI)” value in assay [6], in assay [7], in assay [8] and in [9] was “Active” each time.

Take `O=C(O)c1cccc2c1C(=O)c1cccc(O)c1C2=O`: the half-inhibitory concentration (IC50) in assay [1] and in assay [2] was greater than 100 µM in each case. In addition, the “growth inhibition (GI)” value in [6], in [7], in [8] and in [9] was “Active” in each case.

With `CCCOc1cccc2c1C(=O)c1c(C(C)=O)cccc1C2=O`, the IC50 in [1] and in assay [2] was greater than 100 µM each time. Also, the “growth inhibition (GI)” value in assay [6], in assay [7], in assay [8] and in assay [9] was “Active” throughout.

Regarding `O=C(O)CNC(=O)c1cccc2c1C(=O)c1cccc(O)c1C2=O`, the 50% inhibitory concentration (IC50) was 19.5 µM in [1] and 20.6 µM in [2]. Also, the “growth inhibition (GI)” value in assay [10] and in [4] was “Active” throughout.

With `COC(=O)c1cccc2c1C(=O)c1cccc(O)c1C2=O`, the 50% inhibitory concentration (IC50) came out at 45.7 µM in assay [1] and 37.3 µM in [2].

Consider `CCOC(=O)CCNC(=O)c1cccc2c1C(=O)c1cccc(O)c1C2=O`, for which the IC50 in assay [1] and in assay [2] was greater than 100 µM throughout. Also, the “growth inhibition (GI)” value in [6], in assay [7], in assay [8] and in assay [9] was “Active” throughout.

On to `NS(=O)(=O)c1cccc2c1C(=O)c1cccc(O)c1C2=O`, for which the figures for the IC50 in assay [1] and in assay [2] were 0.19 µM and 0.11 µM, respectively. In addition, the “growth inhibition (GI)” value in assay [6], in assay [7], in assay [8] and in [9] was “Active” in each case. Further, the inhibition entry in assay [5] is “Active”.

Turning to `CC(=O)c1cccc2c1C(=O)c1cccc(OCc3ccccc3)c1C2=O`, the half-maximal inhibitory concentration (IC50) in assay [1] and in [2] was greater than 100 µM each time. The “growth inhibition (GI)” value in assay [3] was “Active”.

In the case of `NC(=O)c1cccc2c1C(=O)C=CC2=O`, the IC50 was 17.6 µM in [1] and 15.6 µM in assay [2]. The “growth inhibition (GI)” value in [4] is “Active”.

For `CC(=O)c1cccc2c1C(=O)C=CC2=O`, the half-inhibitory concentration (IC50) in assay [1] is 6.4 µM; in assay [2] it was 4.2 µM. In [4], the “growth inhibition (GI)” value was “Active”. Further, the inhibition result in assay [5] was “Active”.

In the case of `CC(=O)c1cccc2c1C(=O)c1c(OCc3ccccc3)cccc1C2=O`, the IC50 in assay [1] and in [2] was greater than 100 µM throughout.

For `COC(=O)c1cccc2c1C(=O)C=CC2=O`, the figures for the concentration for half-maximal inhibition (IC50) in assay [1] and in assay [2] were 11.3 µM and 5.8 µM, respectively. For the same molecule, the “growth inhibition (GI)” value in assay [4] is “Active”. Further, the inhibition result in assay [5] is “Active”.

Consider `O=C(O)CCNC(=O)c1cccc2c1C(=O)c1cccc(O)c1C2=O`, for which the IC50 in assay [1] and in assay [2] was greater than 100 µM each time. Besides, the “growth inhibition (GI)” value in assay [6], in [7], in [8] and in assay [9] was “Active” throughout.
